Where two headings read alike, the source gives them in different places.
What was measured:
[1] = tested on: HeLa cervical adenocarcinoma cells
Experimental: (§1) The radioactivity of the samples was measured on a Tri-Carb 2800 TR (3-counter (PerkinElmer, USA) in an ULTIMA GOLD LLT scintillator (Perkin Elmer, USA). An aliquot of the sample (0.1 mL) was thoroughly mixed with the scintillator (0.9 mL) and the radioactivity was measured within no more than 2 h after the mixture was prepared.
(§2) Cells were cultured on the surface of 48-well polystyrene plates.
(§3) Primary human gingival fibroblasts and cervical adenocarcinoma HeLa cells were used as cell cultures. Cells were cultured in IMDM culture medium supplemented with 10% fetal bovine serum and an antibiotic (penicillin and streptomycin) in an atmosphere of 6% CO2, at 37° C.
(§4) During the experiment, the cells were placed into 48-well polystyrene plates with a well diameter of 1 cm, in the amount of 12 thousand cells per well, in triplicate for each type of sample (in 0.5 ml of culture medium). […] The cell suspension was sedimented by centrifugation at 800 g for 10 min, and aliquots were taken from the trypsin supernatant. The cell precipitation was resuspended in 220 μl of saline and 2 aliquots of 100 μl were taken to measure the radioactivity of the samples.

[2] = in water, alcohol; cited from earlier work
[3] = tested on: Primary human gingival fibroblasts
Experimental: as §1, §2, §3, §4

[4] = 0.074% formaldehyde diluted in culture medium, compared with 0.11% formaldehyde solution
[5] = 0.074% formaldehyde in saline, compared with incubation in 0.11% formaldehyde solution
[6] = incubation in culture medium, added formaldehyde 0.00056%
[7] = incubation in culture medium, added formaldehyde 0.0028%
[8] = incubation in culture medium, added formaldehyde 0.014%
[9] = incubation in culture medium, added formaldehyde 0.074%
[10] = incubation in culture medium, added formaldehyde 0.11%
[11] = incubation in saline, added formaldehyde 0.00056%
[12] = incubation in saline, added formaldehyde 0.0028%
[13] = incubation in saline, added formaldehyde 0.014%
[14] = incubation in saline, added formaldehyde 0.074%
[15] = incubation in saline, added formaldehyde 0.11%

SMILES: C=O [formaldehyde]
- activation of the production of endogenous formaldehyde [1, 4]: 30.2%
- activation of the production of endogenous formaldehyde [1, 5]: 32%
- Formaldehyde accumulation, Cells, % of what added [1, 6]: 0.28 ± 0.03 % of what added
- Formaldehyde accumulation, Trypsin eluate, % of what added [1, 6]: 0.20 ± 0.02 % of what added
- Formaldehyde accumulation, Cells, % of what added [1, 7]: 0.64 ± 0.13 % of what added
- Formaldehyde accumulation, Trypsin eluate, % of what added [1, 7]: 0.45 ± 0.06 % of what added
- Formaldehyde accumulation, Cells, % of what added [1, 8]: 1.52 ± 0.09 % of what added
- Formaldehyde accumulation, Trypsin eluate, % of what added [1, 8]: 1.92 ± 0.11 % of what added
- Formaldehyde accumulation, Cells, % of what added [1, 9]: 2.75 ± 0.18 % of what added
- Formaldehyde accumulation, Trypsin eluate, % of what added [1, 9]: 2.54 ± 0.14 % of what added
- Formaldehyde accumulation, Cells, % of what added [1, 10]: 1.92 ± 0.16 % of what added
- Formaldehyde accumulation, Trypsin eluate, % of what added [1, 10]: 1.83 ± 0.12 % of what added
- Formaldehyde accumulation, Cells, % of what added [1, 11]: 0.62 ± 0.04 % of what added
- Formaldehyde accumulation, Trypsin eluate, % of what added [1, 11]: 0.57 ± 0.04 % of what added
- Formaldehyde accumulation, Cells, % of what added [1, 12]: 1.34 ± 0.05 % of what added
- Formaldehyde accumulation, Trypsin eluate, % of what added [1, 12]: 2.14 ± 0.08 % of what added
- Formaldehyde accumulation, Cells, % of what added [1, 13]: 2.65 ± 0.11 % of what added
- Formaldehyde accumulation, Trypsin eluate, % of what added [1, 13]: 3.44 ± 0.19 % of what added
- Formaldehyde accumulation, Cells, % of what added [1, 14]: 2.75 ± 0.18 % of what added
- Formaldehyde accumulation, Trypsin eluate, % of what added [1, 14]: 3.32 ± 0.27 % of what added
- Formaldehyde accumulation, Cells, % of what added [1, 15]: 1.85 ± 0.25 % of what added
- Formaldehyde accumulation, Trypsin eluate, % of what added [1, 15]: 2.41 ± 0.11 % of what added
- solubility [2]: well dissolve in water, alcohol
- activation of the production of endogenous formaldehyde [3, 4]: 20.6%
- activation of the production of endogenous formaldehyde [3, 5]: 18.4%
- Formaldehyde accumulation, Cells, % of what added [3, 6]: 0.25 ± 0.02 % of what added
- Formaldehyde accumulation, Trypsin eluate, % of what added [3, 6]: 0.23 ± 0.03 % of what added
- Formaldehyde accumulation, Cells, % of what added [3, 7]: 0.55 ± 0.07 % of what added
- Formaldehyde accumulation, Trypsin eluate, % of what added [3, 7]: 0.56 ± 0.16 % of what added
- Formaldehyde accumulation, Cells, % of what added [3, 8]: 1.25 ± 0.13 % of what added
- Formaldehyde accumulation, Trypsin eluate, % of what added [3, 8]: 1.36 ± 0.15 % of what added
- Formaldehyde accumulation, Cells, % of what added [3, 9]: 1.7 ± 0.11 % of what added
- Formaldehyde accumulation, Trypsin eluate, % of what added [3, 9]: 2.33 ± 0.34 % of what added
- Formaldehyde accumulation, Cells, % of what added [3, 10]: 1.35 ± 0.09 % of what added
- Formaldehyde accumulation, Trypsin eluate, % of what added [3, 10]: 1.77 ± 0.16 % of what added
- Formaldehyde accumulation, Cells, % of what added [3, 11]: 0.53 ± 0.04 % of what added
- Formaldehyde accumulation, Trypsin eluate, % of what added [3, 11]: 0.45 ± 0.03 % of what added
- Formaldehyde accumulation, Cells, % of what added [3, 12]: 1.26 ± 0.11 % of what added
- Formaldehyde accumulation, Trypsin eluate, % of what added [3, 12]: 1.73 ± 0.23 % of what added
- Formaldehyde accumulation, Cells, % of what added [3, 13]: 3.11 ± 0.27 % of what added
- Formaldehyde accumulation, Trypsin eluate, % of what added [3, 13]: 3.41 ± 0.44 % of what added
- Formaldehyde accumulation, Cells, % of what added [3, 14]: 2.12 ± 0.33 % of what added
- Formaldehyde accumulation, Trypsin eluate, % of what added [3, 14]: 5.16 ± 0.85 % of what added
- Formaldehyde accumulation, Cells, % of what added [3, 15]: 1.73 ± 0.23 % of what added
- Formaldehyde accumulation, Trypsin eluate, % of what added [3, 15]: 3.71 ± 0.45 % of what added

Source: patent US20230090982A1, “DRUG FOR TREATING C[…] […] […] C” (priority 2020, published 2023)
